Data as given in US8258138B2, “Potassium channel blockers” (Xention Limited, priority 2008, dated 2012).

How the values were obtained:
[1] = molecular target: hKv1.5 (Homo sapiens, UniProt P22460); assay: Kv1.5 Autopatch electrophysiology (whole cell patch-clamp); format: cell-based; details: compound at 1 μM; room temperature (22-24° C.); total charge during step to 0 mV; read-out: hKv1.5 % inh.
Method: Kv1.5 Autopatch Electrophysiology Method
The external bathing solution contained (in mM): 150 NaCl, 10 KCl, […], 3 MgCl2, 1 CaCl2, 10 HEPES, pH 7.4. Patch pipettes were filled with an electrode solution of composition (in mM): 160 KCl, 0.5 MgCl2, 10 HEPES, 1 EGTA, pH 7.4 with KOH.
Compounds were dissolved in DMSO (100%) and made up in the external bather at a concentration of 1 μM. All experiments were conducted at room temperature (22-24° C.).
A cell suspension (10 ml), with a density of 100,000 cells/ml, was aliquoted into a 15 ml centrifuge tube and transferred to an incubator (37° C., 5% CO2) for approximately one hour before use. Following 60 min incubation, a tube was taken and centrifuged at 1000 rpm for 4 mins at room temperature. 9.5 ml supernatant was thence discarded, leaving a cell pellet at the bottom of the tube. The pellet was then resuspended using 100 μl of cold (4° C.), filtered (0.22 μm), 0.2% BSA/bather solution (0.02 g BSA/10 ml bather). The bottom of the tube was manually agitated gently until the solution became cloudy with cells. The 100 μl cell resuspension solution was then stored on the bench at 4° C. (using a Peltier-based temperature control device) until used.
A length of capillary glass (1B150F-4, WPI) was dipped into the cell suspension solution, such that ˜3 cm column of fluid was taken up by capillary action. A Ag/AgCl wire was dropped into the non-dipped end of the capillary also. The outside of the solution-filled end of the capillary was then dried and the capillary was loaded into the AutoPatch™.
(§1) Borosilicate glass patch pipettes (from 1.5 mm OD, thin-walled filamented, GC150-TF capillary glass, Harvard) were pulled using a DMZ pipette puller (Zeitz Instruments), and were back-filled using the internal pipette solution, being careful that no bubbles remain at the tip or in the body of the pipette. Patch pipettes typically had resistances of 2.3-3.5 MΩ. Once filled, the pipette tip and a proportion of the shaft (˜15 mm) were dipped into Sigmacote (Sigma). The recording pipette was then loaded into the AutoPatch™ Automated patch-clamping was initiated by the operator, but thereafter AutoPatch.exe continued the experiment providing that pre-set conditions and criteria were satisfied.
Whole cell patch-clamp recordings were made using the AutoPatch™ rig, which incorporated an EPC9 amplifier (HEKA, Germany) under control of Pulse software (v8.54, HEKA, Germany), a motion controller with 2 translators (Newport, UK), valve controller (VF1) and a c-level suction device all at room temperature (22-24° C.). This equipment was completely under the control of AutoPatch.exe and operator intervention was only made when there was a requirement to refill the drug reservoirs or to prevent the loss of a cell due to a technical error. Cells with an Rseries greater than 18 MΩ were discounted from the experiment.
Qualification stages prior to perfusion and drug application ensured that the observed current met the criteria for the experiment. Only those cells with an IK>500 pA were used for experiments. Cells were continuously perfused with external solution at a flow rate of 1.8-2 ml/minute. […] Online analysis of the hKv1.5 current during the application of compounds was performed by the AutoPatch™ software. Voltage-step protocols and analysis of data was performed as described for conventional electrophysiology.
Electrophysiology voltage-step protocols and analysis of data was performed as follows. Data was sampled at 5 kHz, and filtered with a −3 dB bandwidth of 2.5 kHz. Cells were held at a voltage of −80 mV. Currents were evoked to a voltage step for 1000 ms in duration at 0 mV every 5 s. Currents were analysed using Pulsefit software (v8.54, HEKA, Germany), with the total charge measured during the whole of the voltage step. All other plots were produced using Igor Pro (WaveMetrics).

[2] = molecular target: T1, human Kv1.3 (Homo sapiens, UniProt P22001); assay: Kv1.3 Autopatch electrophysiology (whole cell patch-clamp, inhibition of charge movement); format: cell-based; details: compound at 1 μM; cells stably transfected with human Kv1.3; room temperature; total charge during step to +30 mV relative to control; read-out: hKv1.3 % inh.
T1 construct: expressed in transfected cells; host or cells: stably transfected cells grown in medium for CHO cells
T1 sequence (P22001 whole entry): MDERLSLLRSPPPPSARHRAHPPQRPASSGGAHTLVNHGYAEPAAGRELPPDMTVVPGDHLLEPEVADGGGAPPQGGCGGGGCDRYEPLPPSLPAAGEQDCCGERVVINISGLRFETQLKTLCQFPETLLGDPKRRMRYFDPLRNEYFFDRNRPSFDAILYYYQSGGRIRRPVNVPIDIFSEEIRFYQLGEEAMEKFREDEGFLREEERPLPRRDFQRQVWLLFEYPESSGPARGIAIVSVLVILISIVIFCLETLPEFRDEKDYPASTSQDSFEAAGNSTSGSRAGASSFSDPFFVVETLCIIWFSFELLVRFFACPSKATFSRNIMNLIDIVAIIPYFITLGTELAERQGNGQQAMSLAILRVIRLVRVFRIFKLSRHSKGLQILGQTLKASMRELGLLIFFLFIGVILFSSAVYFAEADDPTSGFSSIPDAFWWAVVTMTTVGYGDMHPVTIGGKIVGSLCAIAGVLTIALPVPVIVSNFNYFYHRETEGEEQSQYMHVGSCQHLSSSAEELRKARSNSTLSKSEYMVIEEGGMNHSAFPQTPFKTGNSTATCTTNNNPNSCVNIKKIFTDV
Method: Kv1.3 Autopatch Electrophysiology Method
Compounds were tested on these cells using the AutoPatch technology in whole cell mode.
The external bathing solution contained (in mM): 150 NaCl, 10 KCl, 1 MgCl2, 3 CaCl2, 10 HEPES, pH 7.4 with NaOH. Patch pipettes were filled with an electrode solution of composition (in mM): 100 K-Gluconate, 20 KCl, 1 MgCl2, 1 CaCl2, 10 HEPES, 11 EGTA, 5 ATP-Na2, 2 Glutathione pH 7.2 with KOH.
Compounds were dissolved in DMSO (100%) and made up in the external bather at a concentration of 1 μM immediately prior to use. All experiments were conducted at room temperature.
A cell suspension (10 ml), with a density of 6×10^6 cells, was aliquoted into a 15 ml centrifuge tube and stored at 4° C. before use. Prior to use a tube was taken and centrifuged at 1000 rpm for 4 mins at room temperature. The supernatant was then discarded, leaving a cell pellet at the bottom of the tube. The pellet was then resuspended using 1 ml of cold (4° C.), filtered (0.22 μm), 0.05% BSA/bather solution (0.05 g BSA/100 ml bather). The bottom of the tube was manually agitated followed by gentle tituration. The cell suspension was then placed in the AutoPatch™ temperature controlled cell-hotel at 14° C. and regularly titurated.
as §1, with “A length of Teflon capillary tubing was dipped into the cell suspension solution, and a column of fluid was taken up by negative pressure. The column of fluid was in electrically connectivity with a Ag/AgCl reference electrode. Borosilicate” for “Borosilicate”, “remained” for “remain”, “2.5-3.5” for “2.3-3.5”, “pipettes were placed in a multiwell array and mounted on” for “pipette was then loaded into”, “AutoPatch™ machine.” for “AutoPatch™”, “patch-clamping and drug-application” for “patch-clamping”
Whole cell patch-clamp recordings were made using the AutoPatch™ rig, which incorporated an EPC9 or EPC10 amplifier (HEKA, Germany) under control of Pulse software (v8.54 or v8.76, HEKA, Germany), a cell applicator, automated drug application system (DAS), valve controller (VF1) and a suction device all at room temperature. This equipment was completely under the control of AutoPatch.exe and operator intervention was only made when there was a requirement to refill the bather reservoirs or to prevent the loss of a cell due to a technical error.
Cells were continuously perfused with external solution at a flow rate of ˜2 ml/minute.
Electrophysiology voltage-step protocols and analysis of data was performed as follows. Data were sampled at 5 kHz, and filtered with a −3 dB bandwidth of 2.5 kHz. Cells were held at a voltage of −80 mV. Currents were evoked by a voltage step to +30 mV for 500 ms in duration applied every 15 s. Online analysis of the hKv1.3 current during the application of compounds was performed by the Pulse (v8.54 or v8.76, HEKA, Germany), Excel (Microsoft, USA) and AutoPatch™ software, with the total charge measured during the whole of voltage step. Inhibition of charge movement in the presence of drug was calculated relative to control.

Chain of hKv1.5 (P22460 whole entry): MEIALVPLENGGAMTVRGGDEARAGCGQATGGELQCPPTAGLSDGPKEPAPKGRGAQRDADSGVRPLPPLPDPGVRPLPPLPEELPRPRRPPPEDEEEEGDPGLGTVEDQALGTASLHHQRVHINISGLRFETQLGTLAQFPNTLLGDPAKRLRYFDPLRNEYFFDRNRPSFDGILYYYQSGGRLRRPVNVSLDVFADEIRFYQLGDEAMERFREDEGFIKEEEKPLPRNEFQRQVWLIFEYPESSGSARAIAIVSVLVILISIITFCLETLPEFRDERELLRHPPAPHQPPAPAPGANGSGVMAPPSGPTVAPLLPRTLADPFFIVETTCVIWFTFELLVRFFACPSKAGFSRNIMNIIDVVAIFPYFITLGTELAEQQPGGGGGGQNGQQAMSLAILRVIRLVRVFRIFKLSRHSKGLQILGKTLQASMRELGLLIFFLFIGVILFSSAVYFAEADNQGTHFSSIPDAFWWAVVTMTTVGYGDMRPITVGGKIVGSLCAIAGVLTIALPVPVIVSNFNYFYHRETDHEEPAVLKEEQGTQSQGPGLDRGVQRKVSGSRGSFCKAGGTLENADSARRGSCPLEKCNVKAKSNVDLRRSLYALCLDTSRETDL

SMILES | inhibition at 1 µM [1] | inhibition at 1 µM [2]
O=C(c1ccc(N(Cc2ccc(Cl)cc2)S(=O)(=O)c2ccccc2)cc1)N1CCN(c2ccccc2)CC1 [Example 1, N-(4-Chloro-benzyl)-N-[4-(4-phenyl-piperazine-1-carbonyl)-phenyl]-benzenesulfonamide] | 94% | 91%
Cn1cnc(S(=O)(=O)N(Cc2ccccc2)c2ccc(CN3CCN(c4ccccc4)CC3)cc2)c1 [Example 8, 1-Methyl-1H-imidazole-4-sulfonic acid benzyl-[4-(4-phenyl-piperazin-1-ylmethyl)-phenyl]-amide] | 56.7% | 90%
O=C(c1ccc(N(Cc2ccccc2)S(=O)(=O)c2ccccc2)cc1)N1CCN(c2ccccc2)CC1 [Example 9, N-Benzyl-N-[4-(4-phenyl-piperazine-1-carbonyl)-phenyl]-benzenesulfonamide] | 64.5% | 99%
O=C(c1ccc(N(Cc2ccccc2Cl)S(=O)(=O)c2ccccc2)cc1)N1CCN(c2ccccc2)CC1 [Example 10, N-(2-Chloro-benzyl)-N-[4-(4-phenyl-piperazine-1-carbonyl)-phenyl]-benzenesulfonamide] | 47.9% | 86%
O=C(c1ccc(N(Cc2cccc(Cl)c2)S(=O)(=O)c2ccccc2)cc1)N1CCN(c2ccccc2)CC1 [Example 11, N-(3-Chloro-benzyl)-N-[4-(4-phenyl-piperazine-1-carbonyl)-phenyl]-benzenesulfonamide] | 73.6% | 92%
O=C(c1ccc(N(Cc2ccc(F)cc2)S(=O)(=O)c2ccccc2)cc1)N1CCN(c2ccccc2)CC1 [Example 12, N-(4-Fluoro-benzyl)-N-[4-(4-phenyl-piperazine-1-carbonyl)-phenyl]-benzenesulfonamide] | 56.3% | 93%
COc1ccc(S(=O)(=O)N(Cc2ccccc2)c2ccc(C(=O)N3CCN(c4ccccc4)CC3)cc2)cc1OC [Example 14, N-Benzyl-3,4-dimethoxy-N-[4-(4-phenyl-piperazine-1-carbonyl)-phenyl]-benzenesulfonamide] | 61.3% | 69%
O=C(c1ccc(N(Cc2ccccc2)S(=O)(=O)c2ccc3c(c2)OCCO3)cc1)N1CCN(c2ccccc2)CC1 [Example 15, 2,3-Dihydro-benzo[1,4]dioxine-6-sulfonic acid benzyl-[4-(4-phenyl-piperazine-1-carbonyl)-phenyl]-amide] | 80.4% | 66%
Cc1ccc(S(=O)(=O)N(Cc2ccccc2)c2ccc(C(=O)N3CCN(c4ccccc4)CC3)cc2)cc1 [Example 16, N-Benzyl-4-methyl-N-[4-(4-phenyl-piperazine-1-carbonyl)-phenyl]-benzenesulfonamide] | 48.1% | 77%
O=C(c1ccc(N(Cc2ccccc2)S(=O)(=O)c2cccs2)cc1)N1CCN(c2ccccc2)CC1 [Example 17, Thiophene-2-sulfonic acid benzyl-[4-(4-phenyl-piperazine-1-carbonyl)-phenyl]-amide] | 47.3% | 34%

Continued, values first:

inhibition at 1 µM [1] | inhibition at 1 µM [2] | SMILES
82.9% | 80% | O=C(c1ccc(N(Cc2ccccc2)S(=O)(=O)c2ccsc2)cc1)N1CCN(c2ccccc2)CC1 [Example 18, Thiophene-3-sulfonic acid benzyl-[4-(4-phenyl-piperazine-1-carbonyl)-phenyl]-amide]
54.6% | 83% | O=C(c1ccc(N(Cc2ccccc2)S(=O)(=O)c2ccc(F)cc2)cc1)N1CCN(c2ccccc2)CC1 [Example 19, N-Benzyl-4-fluoro-N-[4-(4-phenyl-piperazine-1-carbonyl)-phenyl]-benzenesulfonamide]
88.8% | 82% | O=C(c1ccc(N(Cc2ccccc2)S(=O)(=O)c2ccccc2F)cc1)N1CCN(c2ccccc2)CC1 [Example 20, N-Benzyl-2-fluoro-N-[4-(4-phenyl-piperazine-1-carbonyl)-phenyl]-benzenesulfonamide]
70.9% | 70% | O=C(c1ccc(N(Cc2ccccc2)S(=O)(=O)c2cccc(F)c2)cc1)N1CCN(c2ccccc2)CC1 [Example 21, N-Benzyl-3-fluoro-N-[4-(4-phenyl-piperazine-1-carbonyl)-phenyl]-benzenesulfonamide]
93.1% | 79% | N#Cc1cccc(S(=O)(=O)N(Cc2ccccc2)c2ccc(C(=O)N3CCN(c4ccccc4)CC3)cc2)c1 [Example 23, N-Benzyl-3-cyano-N-[4-(4-phenyl-piperazine-1-carbonyl)-phenyl]-benzenesulfonamide]
71.9% | 84% | N#Cc1ccccc1S(=O)(=O)N(Cc1ccccc1)c1ccc(C(=O)N2CCN(c3ccccc3)CC2)cc1 [Example 24, N-Benzyl-2-cyano-N-[4-(4-phenyl-piperazine-1-carbonyl)-phenyl]-benzenesulfonamide]
58.8% | 68% | Cn1cnc(S(=O)(=O)N(Cc2ccccc2)c2ccc(C(=O)N3CCN(c4ccccc4)CC3)cc2)c1 [Example 25, 1-Methyl-1H-imidazole-4-sulfonic acid benzyl-[4-(4-phenyl-piperazine-1-carbonyl)-phenyl]-amide]
